Data on two molecules can be found in publication PMC3387330 (Amino acids, 2012).

Structures are written as SMILES.

The data set is described as follows: Metabolic stability of parent peptide in rat hepatocytes. The note with it: male, Sprague-Dawley.

Consider `CSCC[C@H](NC(=O)[C@H](CC(C)C)NC(=O)[C@H](Cc1c[nH]cn1)NC(=O)CNC(=O)[C@@H](NC(=O)[C@H](C)NC(=O)[C@H](Cc1c[nH]c2ccccc12)NC(=O)[C@H](CCC(N)=O)NC(=O)CCCCCNC(=O)c1ccc(F)cc1)C(C)C)C(N)=O` [FB-BBN, FB-aca-QWAVGHLM-NH2], for which the half-life at 10 µM was approximately 3.8 min.
`CSCC[C@H](NC(=O)[C@H](CC(C)C)NC(=O)[C@H](Cc1c[nH]cn1)NC(=O)CNC(=O)[C@@H](NC(=O)[C@H](C)NC(=O)[C@H](Cc1c[nH]c2ccccc12)NC(=O)[C@H](CCC(N)=O)NC(=O)CCCCCNC(=O)C(C)F)C(C)C)C(N)=O` (some centres unmarked) [FP-BBN, FP-aca-QWAVGHLM-NH2]: the half-life at 10 µM was approximately 25 min.

A word on the half-life: it is the time in which the quantity being followed falls by half.
